From US20220046923A1, “HERBICIDAL CINNOLINIUM COMPOUNDS” (SYNGENTA CROP PROTECTION AG, priority 2018, published 2022) come the findings set out here.

Holding throughout (experiment): Post-emergence efficacy, glasshouse spray test
Type in all cases: in vivo

One assay has as its system Setaria faberi (SETFA). As to conditions: Setaria faberi, post-emergence, 312 h, evaluated after 13 days, read-out: Control of weed species SETFA after post-emergence application (100=total damage to plant; 0=no damage to plant); for pest or weed control at 500 g/ha: application rate 500 g/Ha; for pest or weed control at 1000 g/ha: application rate 1000 g/Ha. Summed up:
(§1)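 Compound formulated in acetone/IF50 and diluted into 0.25% or 1% Empicol ESC70 with 1% ammonium sulphate was sprayed on glasshouse seedlings 14 days after sowing. Growth continued at 24/16 °C, 14 h light, 65% humidity with twice-daily watering; damage (0–100) scored on day 13.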

The test system of assay [1] is Euphorbia heterophylla (EPHHL). As to conditions: Euphorbia heterophylla, post-emergence, 312 h, evaluated after 13 days, read-out: Control of weed species EPHHL after post-emergence application (100=total damage to plant; 0=no damage to plant); for pest or weed control at 500 g/ha: application rate 500 g/Ha; for pest or weed control at 1000 g/ha: application rate 1000 g/Ha. Summed up:
as §1

Assay [2] has as its system Ipomoea hederacea (IPOHE). As to conditions: Ipomoea hederacea, post-emergence, 312 h, evaluated after 13 days, read-out: Control of weed species IPOHE after post-emergence application (100=total damage to plant; 0=no damage to plant); for pest or weed control at 500 g/ha: application rate 500 g/Ha; for pest or weed control at 1000 g/ha: application rate 1000 g/Ha. Summed up: as §1

Assay [3] concerns Digitaria sanguinalis (DIGSA). Particulars: Digitaria sanguinalis, post-emergence, 312 h, evaluated after 13 days, read-out: Control of weed species DIGSA after post-emergence application (100=total damage to plant; 0=no damage to plant); for pest or weed control at 500 g/ha: application rate 500 g/Ha; for pest or weed control at 1000 g/ha: application rate 1000 g/Ha. The gist of the method:
as §1

The test system of a further assay is Lolium perenne (LOLPE). Particulars: Lolium perenne, post-emergence, 312 h, evaluated after 13 days, read-out: Control of weed species LOLPE after post-emergence application (100=total damage to plant; 0=no damage to plant); for pest or weed control at 500 g/ha: application rate 500 g/Ha; for pest or weed control at 1000 g/ha: application rate 1000 g/Ha. The gist of the method: as §1

In the next assay the test system is Eleusine indica (ELEIN). Particulars: Eleusine indica, post-emergence, 312 h, evaluated after 13 days, read-out: Control of weed species ELEIN after post-emergence application (100=total damage to plant; 0=no damage to plant); for pest or weed control at 500 g/ha: application rate 500 g/Ha; for pest or weed control at 1000 g/ha: application rate 1000 g/Ha. Summed up:
as §1

Assay [4] deals with Amaranthus palmeri (AMAPA). As to conditions: Amaranthus palmeri, post-emergence, 312 h, evaluated after 13 days, read-out: Control of weed species AMAPA after post-emergence application (100=total damage to plant; 0=no damage to plant); for pest or weed control at 500 g/ha: application rate 500 g/Ha; for pest or weed control at 1000 g/ha: application rate 1000 g/Ha. Summed up: as §1

Assay [5] relates to Echinochloa crus-galli (ECHCG). As to conditions: Echinochloa crus-galli, post-emergence, 312 h, evaluated after 13 days, read-out: Control of weed species ECHCG after post-emergence application (100=total damage to plant; 0=no damage to plant); for pest or weed control at 500 g/ha: application rate 500 g/Ha; for pest or weed control at 1000 g/ha: application rate 1000 g/Ha. The gist of the method:
as §1

Assay [6] relates to Chenopodium album (CHEAL). Particulars: Chenopodium album, post-emergence, 312 h, evaluated after 13 days, read-out: Control of weed species CHEAL after post-emergence application (100=total damage to plant; 0=no damage to plant); for pest or weed control at 500 g/ha: application rate 500 g/Ha; for pest or weed control at 1000 g/ha: application rate 1000 g/Ha. Summed up: as §1

The structures appear in SMILES notation.

As for `COC(=O)C(C)[n+]1ccc2ccccc2n1` (stereo not drawn) [Compound A120], the pest or weed control at 500 g/ha with Setaria faberi (SETFA) is 50%; in [1], 60%; in assay [2] it was 20%; in assay [3] it was 50%; in the assay with Lolium perenne (LOLPE), 0%; with Eleusine indica (ELEIN), 60%. For the same compound, the pest or weed control at 500 g/ha in assay [4] worked out at 100%; in assay [5], 30%; in assay [6], 90%.

Consider `CC(=O)Nc1cccc2cc[n+](CCS(=O)(=O)[O-])nc12` [Compound A107, 2-(8-acetamidocinnolin-2-ium-2-yl)ethanesulfonate], for which the pest or weed control at 130 g/ha is 70% in the assay with Setaria faberi (SETFA) (application rate 130 g/Ha); 50% in assay [1] (application rate 130 g/Ha); 40% in assay [2] (application rate 130 g/Ha); 70% in assay [3] (application rate 130 g/Ha); 40% in the assay on Lolium perenne (LOLPE) (application rate 130 g/Ha); 40% with Eleusine indica (ELEIN) (application rate 130 g/Ha). Moreover, the pest or weed control at 130 g/ha worked out at 60% in assay [4] (application rate 130 g/Ha), 80% in [5] (application rate 130 g/Ha) and 40% in assay [6] (application rate 130 g/Ha).

Turning to `O=C(NC(C[n+]1ccc2ccccc2n1)C(=O)O)OCc1ccccc1` (stereo not drawn) [Compound A114], the pest or weed control at 500 g/ha came out at 20% in the assay with Setaria faberi (SETFA); 50% in [1]; 30% in assay [2]; 20% in assay [3]; 10% in the assay with Lolium perenne (LOLPE); 30% in the assay with Eleusine indica (ELEIN). Besides, the pest or weed control at 500 g/ha came to 50% in assay [4], 20% in assay [5] and 40% in assay [6].

Regarding `O=S(=O)([O-])OCC[n+]1ccc2ccccc2n1` [Compound A26], the pest or weed control at 1000 g/ha was found to be 60% in the assay on Setaria faberi (SETFA); 90% in assay [1]; 70% in [2]; 70% in assay [3]; 60% with Lolium perenne (LOLPE); 70% with Eleusine indica (ELEIN). Moreover, the figures for the pest or weed control at 1000 g/ha in [4], in assay [5] and in assay [6] were 100%, 30% and 70%, respectively.

With `O=P([O-])(O)CC[n+]1ccc2ccccc2n1` [Compound A71], the pest or weed control at 1000 g/ha in the assay with Setaria faberi (SETFA) worked out at 70%; in assay [1], 90%; in assay [2], 40%; in assay [3], 80%; in the assay on Lolium perenne (LOLPE) it was 30%; with Eleusine indica (ELEIN), 70%. For the same compound, the pest or weed control at 1000 g/ha in assay [4] came out at 70%; in [5] it was 40%; in [6], 100%.

As to `O=S(=O)([O-])CC[n+]1ccc2cc(-c3ccccc3)ccc2n1` [Compound A53], the pest or weed control at 500 g/ha was 10% in the assay with Setaria faberi (SETFA); 20% in [1]; 10% in [2]; 10% in [3]; 0% in the assay on Lolium perenne (LOLPE); 40% in the assay with Eleusine indica (ELEIN). The pest or weed control at 500 g/ha was 20% in [4], 0% in assay [5] and 0% in assay [6].

As to `CC(CC(=O)O)[n+]1ccc2ccccc2n1` (stereo not drawn) [Compound A115, 3-cinnolin-2-ium-2-ylbutanoic Acid 2,2,2-trifluoroacetate], the pest or weed control at 500 g/ha in the assay on Setaria faberi (SETFA) turned out to be 30%; in assay [1] it was 20%; in [2] it was 20%; in assay [3], 60%; with Lolium perenne (LOLPE) it was 20%; with Eleusine indica (ELEIN), 60%. Besides, the pest or weed control at 500 g/ha came to 100% in [4], 20% in assay [5] and 40% in [6].

For the compound `COC(=O)C[n+]1ccc2ccccc2n1` [Compound A1, methyl 2-cinnolin-2-ium-2-ylacetate bromide], the pest or weed control at 1000 g/ha came to 60% with Setaria faberi (SETFA); 90% in [1]; 50% in assay [2]; 70% in assay [3]; 40% in the assay on Lolium perenne (LOLPE); 100% in the assay with Eleusine indica (ELEIN). In addition, the values for the pest or weed control at 1000 g/ha in assay [4], in [5] and in [6] were 100%, 70% and 60%, respectively.

With `CS(=O)(=O)[N-]C(=O)CCC[n+]1ccc2ccccc2n1` [Compound A30], the pest or weed control at 1000 g/ha in the assay on Setaria faberi (SETFA) was 20%; in assay [1], 50%; in assay [2], 10%; in [3] it was 20%; with Lolium perenne (LOLPE) it was 10%; in the assay with Eleusine indica (ELEIN), 20%. For the same compound, the values for the pest or weed control at 1000 g/ha in [4], in assay [5] and in assay [6] were 70%, 10% and 60%, respectively.
